In the first assay the target is T1, human M1 (Homo sapiens, UniProt P11229).
T1 construct: expressed in transfected cells; host or cells: CHO cells
T1 sequence (P11229 1-460): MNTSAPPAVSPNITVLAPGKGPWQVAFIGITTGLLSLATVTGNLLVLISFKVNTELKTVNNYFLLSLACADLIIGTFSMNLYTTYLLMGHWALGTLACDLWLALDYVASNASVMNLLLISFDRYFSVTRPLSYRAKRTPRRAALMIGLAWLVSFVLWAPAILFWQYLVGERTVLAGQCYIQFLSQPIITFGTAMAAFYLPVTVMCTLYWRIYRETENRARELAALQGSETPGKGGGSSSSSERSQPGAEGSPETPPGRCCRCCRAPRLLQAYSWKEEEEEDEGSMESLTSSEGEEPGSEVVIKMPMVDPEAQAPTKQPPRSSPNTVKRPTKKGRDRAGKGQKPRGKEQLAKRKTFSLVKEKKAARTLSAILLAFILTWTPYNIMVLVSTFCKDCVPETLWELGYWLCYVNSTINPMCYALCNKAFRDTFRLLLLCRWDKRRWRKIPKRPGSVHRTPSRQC
In words: M1 PAM assay (FLIPR intracellular calcium), human M1.
Conditions: not given
Type of assay: cell-based. How it is done:
The assay study the effect of several concentrations of test compounds on basal or acetylcholine-stimulated Ca^2+ levels using FLIPR.
CHO human M1 are plated the day before the experiments at 2×10^5 cells/ml in PDL BioCoat 96 well black/clear plate (Becton 35 4640). The cells are grown at 37° C. and 5% CO2 in the following medium: F12 Nut Mix (Gibco 21765), 10% FCS heat inactivated (GIBCO 16000-044), 1% Pen Strep (Gibco,15140) and 200 μg/ml Geneticin (Gibco 11811). On the day of the experiment, the medium was removed and replaced by […] of dye loading buffer containing Hanks Balanced Salt solution (HBSS, 14065-049, Gibco) with 20 mM HEPES (Gibco 15630-056), 2 mM Probenicid (Sigma P8761), […] ester (Molecular Probes F-14202), 10% Pluronic acid Molecular Probes P-3000) pH=7.4 and incubated at 37° C. After 60 minutes extracellular dye was removed and the cells were washed five times with FLIPR buffer containing HBSS (Gibco 14065-049) with 20 mM HEPES (Gibco, 15630-056), 2 mM Probenicid (Sigma P8761) pre-warmed at 37° C. using and Ebml cell washer leaving […] of FLIPR buffer in each well. The cell plate and the diluted compounds (1% DMSO final concentration) are placed on the platform of the FLIPR and the door closed. A signal test to check background fluorescence and basal fluorescence signal is performed. Laser intensity is adjusted if necessary. Two minutes preincubation with the diluted test compounds is provide to determine any agonist activity on the M1 receptor by comparison to 30 nM Acetylcholine control. In order to determine any modulator activity the diluted compounds were added to cells and after two minutes preincubation, the EC20 of acetylcholine is added followed by another two minutes preincubation before the measurement of intracellular Ca^2+ with a FLIPR (Molecular Devices).
For orientation: A change in cytosolic calcium serves as a functional read-out for many receptors and channels.
The term EC50 denotes the midpoint of the concentration-response curve. Take `N#Cc1cccc(Cn2cc(C(=O)N[C@H]3CCCC[C@@H]3O)c3c(F)cccc32)c1` [Example 40, 1-(3-cyanobenzyl)-4-fluoro-N-((1S,2S)-2-hydroxycyclohexyl)-1H-indole-3-carboxamide]: the EC50 came out at 476 nM. On the same count and under the same terms, as for `O=C(N[C@H]1CCCC[C@@H]1O)c1cn(Cc2cccc(Cl)c2)c2cccc(F)c12` [Example 39, 1-(3-chlorobenzyl)-4-fluoro-N-((1S,2S)-2-hydroxycyclohexyl)-1H-indole-3-carboxamide], the figure is 205 nM.

The same assay, now with this note: CHO human M1 cells, FLIPR Ca2+, with EC20 of acetylcholine; first value of the cell; read-out: hM1 EC50.
For `Cn1cc(-c2ccc(Cn3nc(C(=O)NC4CCOCC4)c4c(F)cccc43)cc2)cn1` [Example 69, 4-fluoro-1-(4-(1-methyl-1H-pyrazol-4-yl)benzyl)-N-(tetrahydro-2H-pyran-4-yl)-1H-indazole-3-carboxamide], the EC50 stood at 344 nM. The same measure, in the same setting: in the case of `Cn1cc(-c2ccc(Cn3cc(C(=O)NC4CCCCC4(F)F)c4c(F)cccc43)c(F)c2)cn1` (stereo not shown) [Example 25, N-(2,2-difluorocyclohexyl)-4-fluoro-1-(2-fluoro-4-(1-methyl-1H-pyrazol-4-yl)benzyl)-1H-indole-3-carboxamide] it was 359 nM; in that of `CS(=O)(=O)c1ccc(Cn2cc(C(=O)N[C@H]3CCCC[C@@H]3O)c3c(F)cccc32)cc1` [Example 82, 4-fluoro-N-((1S,2S)-2-hydroxycyclohexyl)-1-(4-(methylsulfonyl)benzyl)-1H-indole-3-carboxamide], 435 nM. On the same count and under the same terms, as for `Cn1cc(-c2ccc(Cn3cc(C(=O)N[C@H]4CCCC[C@@H]4O)c4c(F)c(F)ccc43)cc2)cn1` [Example 57, 4,5-difluoro-N-((1S,2S)-2-hydroxycyclohexyl)-1-(4-(1-methyl-1H-pyrazol-4-yl)benzyl)-1H-indole-3-carboxamide], the figure is 139 nM; as for `CNC(=O)c1ccc(Cn2cc(C(=O)NC3CCOC(C)(C)C3)c3c(F)cccc32)cc1F` (stereo not shown) [Example 166, N-(2,2-dimethyltetrahydro-2H-pyran-4-yl)-4-fluoro-1-(3-fluoro-4-(methylcarbamoyl)benzyl)-1H-indole-3-carboxamide], 35 nM; as for `CN(C)C(=O)c1cccc(Cn2cc(C(=O)N[C@H]3CCCC[C@@H]3O)c3c(F)cccc32)c1` [Example 90, 1-(3-(dimethylcarbamoyl)benzyl)-4-fluoro-N-((1S,2S)-2-hydroxycyclohexyl)-1H-indole-3-carboxamide], 341 nM. Same read-out and setting: as for `Cn1cc(-c2cccc(Cn3cc(C(=O)N[C@H]4CCCC[C@@H]4O)c4c(F)cccc43)c2)cn1` [Example 35, 4-fluoro-N-((1S,2S)-2-hydroxycyclohexyl)-1-(3-(1-methyl-1H-pyrazol-4-yl)benzyl)-1H-indole-3-carboxamide], the figure is 226 nM; as for `CCOC(=O)Nc1ccc(Cn2cc(C(=O)N[C@H]3CCCC[C@@H]3O)c3c(F)cccc32)cc1` [Example 85, ethyl 4-((4-fluoro-3-((1S,2S)-2-hydroxycyclohexylcarbamoyl)-1H-indol-1-yl)methyl)phenylcarbamate], 42.9 nM.

Take `CNC(=O)c1ccc(Cn2cc(C(=O)NC3CCOCC3C)c3c(F)cccc32)cc1F` (stereo not shown) [Example 168, 4-fluoro-1-(3-fluoro-4-(methylcarbamoyl)benzyl)-N-(3-methyltetrahydro-2H-pyran-4-yl)-1H-indole-3-carboxamide]: the half-maximal effective concentration (EC50) is 97 nM. The same measure, in the same setting: as for `O=C(N[C@H]1CCCC[C@@H]1O)c1cn(CC2CCN(c3ccccn3)CC2)c2cccc(F)c12` [Example 160, 4-Fluoro-N-((1S,2S)-2-hydroxycyclohexyl)-1-((1-(pyridin-2-yl)piperidin-4-yl)methyl)-1H-indole-3-carboxamide], the figure is 196 nM; as for `CNC(=O)c1cccc(Cn2cc(C(=O)N[C@H]3CCCC[C@@H]3O)c3c(F)cccc32)c1` [Example 89, 4-fluoro-N-((1S,2S)-2-hydroxycyclohexyl)-1-(3-(methylcarbamoyl)benzyl)-1H-indole-3-carboxamide], 319 nM.

These data come from patent US9708259B2 (Hoffmann-La Roche Inc., priority 2013, dated 2017).
